Test results from US20260256790A1, “DEBIO-0123 IN COMBINATION WITH TEMOZOLOMIDE AND RADIOTHERAPY FOR USE IN TREATING GLIOMA” (Debiopharm International S.A., priority 2023, published 2026).
Several values for one entry are separate records, joined by “and”; a condition that tells them apart may be missing. Identical values can stand only once. Like-named read-outs stand apart in the source and are kept apart here.

Tests used:
[1] = Drug concentration in monkey brain and plasma after daily oral administration for 91 days; assay type: in vivo, cynomolgus monkeys; details: 10 mg/kg oral once a day for 91 days; for Kp at 24 h / concentration at 24 h: female, cynomolgus monkey, 10 mg/kg; for Kp at 24 h: brain (left forebrain) / plasma, po; for concentration at 24 h: oral
Description: Compound of formula (I) was orally given to 3 female cynomolgus monkeys by gavage once a day for 91 days. The volume of administration was 5 mL/kg, and the vehicle was an aqueous solution of 0.5% (w/v) methylcellulose (cps 400) and 1% (w/v) Tween 80. The Compound of formula (I) dose was 10 mg/kg; this dose level was assessed in this study to be the […] no adverse effect level (NOAEL) based on general toxicology evaluation. The animals were necropsied 24 hours after the last dose after an overnight period without food. A sample from brain tissue (left forebrain) was collected from each animal, snap frozen in liquid nitrogen. and stored frozen at <−50° C. Blood samples were taken from the femoral vein into tubes containing K2EDTA, fully inverted approximately 10 times, and placed on crushed wet ice until centrifugation at 2300 g for 10 minutes at approximately 4° C. The resultant plasma was separated, transferred into polypropylene tubes, and frozen at <−50° C. Tissue and plasma samples were transported frozen on dry ice to the respective sites of analysis.
The monkey plasma samples were analyzed for their contents in Compound of formula (I) and N^32-desmethyl-Compound of formula (I) as follows. The plasma samples were fortified in human K2-EDTA plasma (1:9 monkey:human volume ratio) prior to extraction. All solution preparations and dilutions were conducted under sodium vapor light and in “low-binding” quality polypropylene tubes and deep-well plates. The analytes and internal standards (^13CD6-Compound of formula (I) and D7-N^32-desmethyl-Compound of formula (I)) were extracted by protein precipitation with 5M aqueous urea (40 μL for 50 μL plasma), and then analyzed by LC-MS/MS. Chromatographic separation was achieved on an Synergi Polar-RP, 80A, 4 μm 75×2.00 mm column (Phenomenex) with gradient elution using a mixture of 0.1% formic acid in water as eluent A and 0.1% formic acid in acetonitrile as eluent B (5% B from 0 to 0.50 min, 42% B at 4.5 min, 95% B from 4.60 min to 5.50 min, 5% B at 5.60 min, 100% B at 5.70 min, 5% B at 6.40 min, 100% B at 6.50 min, 5% B at 7.00 min; 800 μl/min, 70° C.). Detection was accomplished with a AB Sciex 6500+ mass spectrometer utilizing electrospray MS/MS in positive ion multiple reaction monitoring mode (MRM). The lower limits of quantification for Compound of formula (I) and N^32-desmethyl-Compound of formula (I) were 5.00 ng/mL and 2.50 ng/mL, respectively.
The monkey brain tissue samples were analyzed for their contents in Compound of formula (I) and N^32-desmethyl-Compound of formula (I) as follows. Tissue samples were homogenized in human plasma (1 mg tissue for 10 μL plasma) at +4° C. using a Precelly Evolution system. The analytes (Compound of formula (I) and N^32-desmethyl-Compound of formula (I)) were extracted by protein precipitation with methanol/acetonitrile (9:1, v:v) containing the internal standards (^13CD6-Compound of formula (I) and D7-N^32-desmethyl-Compound of formula (I)) and then analyzed by UHPLC-MS/MS. Chromatographic separation was achieved on a HSS T3 1.8 μm, 2.1×100 mme column (Waters) with gradient elution using a mixture of 0.1% formic acid in water as eluent A, and 0.1% formic acid in acetonitrile as eluent B (20% B from 0 to 0.50 min, 90% B from 1.80 min to 2.30 min, 20% B at 2.60 min; 0.6 mL/min, room temperature). Detection was accomplished with Xevo TQ-S mass spectrometer (Waters) utilizing electrospray MS/MS in positive ion multiple reaction monitoring mode (MRM). The lower limits of quantification for Compound of formula (I) and N^32-desmethyl-Compound of formula (I) were 55.00 ng/g tissue and 22.00 ng/g tissue, respectively.

U87-MG-luc GBM cell line = assay: U87-MG-luc tumors implanted intracranially in mice, combination with temozolomide; assay type: in vivo; details: 28 day cycle
Description: Male athymic nude mice were injected into the cerebellum with 1×10^5 U87-MG-luc cells in Matrigel. Animals were imaged to monitor tumor establishment and growth throughout the study using an In Vivo Imaging System (IVIS) once weekly, detecting tumor bioluminescence (BLI) in photons. Once tumor establishment was confirmed, animals were randomly allocated into 8 treatment groups: vehicle (0.5% methycellulose, 1% Tween 80 P.O. and saline IV.), Compound of formula (I) [CoF (I)](formulated as a suspension in 0.5% methycellulose and 1% Tween 80) administered orally at 3 mg/kg, at 10 mg/kg or at 30 mg/kg once daily (QD) in monotherapy, temolozomide [TMZ] administered orally at 3 mg/kg once daily (QD) in monotherapy, over a 28 day cycle, and combination of TMZ+compound of formula (I) at each dose) (n=6 animals per group for monotherapy groups and n=8 animals per group for combination groups). In combination arms, Compound of formula (I) and was administered 2 hours prior to TMZ. During routine monitoring, the animals were checked for any effects of tumor growth and treatments on behavior such as mobility, food and water consumption, body weight gain/loss 3 times a week, eye/hair matting and any other abnormalities. Mortality and observed clinical signs were recorded for individual animals in detail.

SMILES: Cc1cc(Nc2ncc3c(n2)N(C)CN(c2c(Cl)cccc2Cl)C3=O)ccc1C1CCN(C)CC1 [Compound of formula (I)]
- Brain:plasma concentration ratio, at 24 h post last dose ([1]; individual animals): 4.18 and 4.57
- Plasma concentration at 24 h post last dose ([1]; individual animals): 929 ng/mL and 632 ng/mL
- Brain concentration at 24 h post last dose ([1]; left forebrain, individual animals): 3885 ng/g tissue and 2886 ng/g tissue
- Kp at 24 h ([1]; individual animals, read-out: Brain:plasma concentration ratio, at 24 h post last dose): 4.2
- Kp at 24 h ([1]; read-out: Mean brain:plasma ratio (±SD), at 24 h post last dose (n = 3)): 4.32 ± 0.22
- concentration at 24 h ([1]; brain (left forebrain), left forebrain, individual animals, read-out: Brain concentration at 24 h post last dose): 4790 ng/g
- concentration at 24 h ([1]; plasma, individual animals, read-out: Plasma concentration at 24 h post last dose): 1140 ng/mL
- Anti-tumor activity (mean relative BLI) vs vehicle (U87-MG-luc GBM cell line; monotherapy 3 mg/kg oral QD): did not result in any significant anti-tumor activity
- Anti-tumor activity (mean relative BLI) vs vehicle (U87-MG-luc GBM cell line; monotherapy 10 mg/kg oral QD): did not result in any significant anti-tumor activity
- Anti-tumor activity (mean relative BLI) vs vehicle (U87-MG-luc GBM cell line; monotherapy 30 mg/kg oral QD, p=0.0133 on day 36): significantly smaller tumors than vehicle controls
